According to patent US9932300B2, “N,N′-diarylurea compounds and N,N′-diarylthiourea compounds as inhibitors of translation initiation” (President and Fellows of Harvard College, priority 2009, dated 2018):

System: eIF2-GTP-Met-tRNAi ternary complex
Experiment: Ternary complex assay (dual luciferase, firefly/renilla ratio) in stable KLN-tTA/pBISA-DL(ATF-4) cells; HTS and hit confirmation
Assay type: cell-based, mouse
Parameters: Activity 10 uM / Activity 2.5 uM / Activity 5 uM: unit not given here
Settings: for Effect on firefly/renilla luciferase ratio: KLN-tTA/pBISA-DL(ATF-4) colonies, assay validation; for Activity 5 uM: compound at 5 uM; for Activity 5 uM / Activity 10 uM / Activity 2.5 uM: confirmed hits of the screen (Table 5); for Activity 10 uM: compound at 10 uM; for Activity 2.5 uM: compound at 2.5 uM
Description: For assay development, a bi-directional plasmid was designed in which a common promoter/enhancer complex drives the transcription of firefly luciferase (F-luc) ORF fused to the 5′ untranslated region (UTR) of ATF-4, and of the renilla luciferase (R-luc) ORF fused to a 90-nucleotide 5′ UTR derived from the plasmid (FIG. 6A). Because the tetracycline-regulated transactivator ((tTA), required for driving transcription from this vector) is not normally expressed in the mammalian cells, stable KLN cancer cells were constructed that expressed tTA (KLN-tTA).
The KLN-tTA colonies that drove expression of reporter genes from pBISA-DL plasmid were selected by transient transfection and dual luciferase assay. One of these KLN-tTA cell lines was transfected with the pBISA-DL^(ATF-4) expression vector, stable colonies were selected by dual luciferase assay and expanded. To determine if reduced availability of the eIF2*GTP*Met-tRNAi ternary complex increased the translation of firefly luciferase and decreased translation of renilla luciferase, selected KLN-tTA/pBISA-DL^(AFT-4) colonies were treated with thapsigargin (TG) or tunicamycin (TU), two agents known to cause phosphorylation of eIF2α.
This assay was then adapted for high throughput screening in 96 and 384 well plates. This was done by evaluating the cell density, length of exposure to compounds, DMSO tolerance and optimum firefly and renilla substrate. We then challenged these cells with thapsigargin or DMSO. […] Cell-based assays usually have higher variation than homogeneous in vitro assays due to position effect in the plate, and other variables associated with handling of cells and the plates.
Screening was conducted in 384 well white opaque plates (Nalge Nunc), 100 μl volume RPMI+10% fetal bovine serum. Cells were plated at the sub-confluent density of 10,000 cells/well, and allowed to attach for a period of 16-18 hours at 37° C., 5% CO2. Compounds were added as 1 μl of a 1 mM DMSO stock solution for a final screening concentration of 10 μM, using low-volume tips for transfer (Molecular Bioproducts). Cells were then incubated in the presence of compound for an additional sixteen hours, again at 37° C., 5% CO2. Following incubation 70 μl of the culture medium was removed from each well to allow for reagent addition and plates were allowed to equilibrate to room temperature for thirty minutes. Firefly luciferase reporter activity was then read by the addition of thirty microliters of Dual Glo Luciferase reagent (Promega), followed by one hour incubation at room temperature to allow for adequate signal buildup. Luminescence counting was conducted on a Microbeta Trilux using a 1 second read time. Renilla luciferase reporter activity was measured following addition of 30 μl Stop and Glo Luciferase reagent (Promega) and incubation identical to the one carried out for the firefly luciferase one.
Compound scores were interpreted as firefly luciferase activity divided by renilla luciferase activity, normalized to the plate's DMSO control. […] All data analysis was conducted using the BioAssay HTS software package (CambridgeSoft).
102,709 compounds in the NCI Open Chemical Repository were then screened using this HTS assay. […] Initial hits were confirmed by repeating the same dual luciferase assay in 96 well plates. Briefly, 20,000 cells/well were plated in triplicate for each concentration (10, 5 and 2.5 μM) of the compounds.

Compound | Effect on firefly/renilla luciferase ratio | Activity 5 uM | Activity 10 uM | Activity 2.5 uM
tunicamycin [reference compound] | increase in the ratio of firefly activity relative to renilla activity | – | – | –
Oc1ccccc1/C=N\N=C\c1ccco1 [Compound 119688] | – | 2.45 | 3.9 | –
O=Cc1cc(CCCCCCc2ccc(O)c(C=O)c2)ccc1O [Compound 88001] | – | 12 | 21.4655 | –
[CH+]=CC1([O][Sn-]([IH+])([c]2ccccc2)[c]2ccccc2)CCCCCC1 [Compound 671441] | – | – | – | 5.35
CN(C)c1ccc(N=Nc2ccc(C(=O)Cl)cc2)cc1 [Compound 240870] | – | 6.352 | 7.2395 | –
Oc1[nH]c2ccccc2c1N=NC(=S)N1CCCC1 [Compound 668494] | – | – | 13.68 | 3.76
Cc1ccc2nn(-c3ccc(O)cc3)nc2c1 [Compound 106291] | – | – | 3.15 | 2.7
CCCCCCCCCCCC[N+](C)(C)C.[O-]c1c(Cl)c(Cl)c(Cl)c(Cl)c1Cl [Compound 85573] | – | 2.1 | 3.1 | –
Ic1ccc(/C=N/Nc2nnc(N/N=C/c3ccc(I)cc3)c3ccccc23)cc1 [Compound 103842] | – | 2.6 | 3.3 | –
NC(=S)N/N=C\c1ncnc2ccccc12 [Compound 104959] | – | 5.19 | 5.474 | –
O=[N+]([O-])c1cccc(-c2cn3c(n2)Cc2ccccc2C3)c1 [Compound 693037] | – | 6.794 | 8.088 | –
c1csc(-c2ccc3ccccc3n2)c1 [Compound 71690] | – | 2.889 | 3.4315 | –
c1ccc2c(c1)O[As](O[As]1Oc3ccccc3O1)O2 [Compound 157382] | – | – | 9.04 | 0.68
OCCc1ccc(-n2cnc3c(Nc4ccc(Cl)cc4)ncnc32)cc1 [Compound 87695] | – | – | 4.42 | 3.28
CCCCCCCC[N+](CCCC)(CCCC)CCCC.O=C([O-])CCl [Compound 12134] | – | – | – | 8.83
CCc1ccc(NC(=O)Nc2cccc(Cl)c2)cc1 [Compound 164212] | – | – | 4.07 | 2.04
COc1ccc2nc(CCc3ccccc3)ccc2c1 [Compound 35424] | – | – | 3.07 | 2.55
C/C=C(/C)C(=O)O[C@H]1C(C)=C2[C@H]([C@@H]1OC(=O)CCCCCCC)[C@@](C)(OC(C)=O)C[C@H](OC(=O)CCC)[C@@]1(O)[C@H]2OC(=O)[C@@]1(C)O [thapsigargin, reference compound] | increase in the ratio of firefly activity relative to renilla activity | – | – | –
COc1ccccc1NC(=S)N/N=C/c1ccccn1 [Compound 668298] | – | – | 30.06 | 11.99
Nc1nc2c(N)cc(C(F)(F)F)cc2nc1-c1ccccc1 [Compound 645170] | – | – | 5.1 | 3
Cc1cc(N(CCCl)CCCl)ccc1CN1CCCN(Cc2ccc(N(CCCl)CCCl)cc2C)C1c1ccccc1O [Compound 88655] | – | – | 18.32 | 0.7
F[P-](F)(F)(F)(F)F.[C-]#[O+].[C-]#[O+].[CH]1[CH][CH][CH][CH]1.[Mo].c1ccc(P(CC[As](c2ccccc2)c2ccccc2)CC[As](c2ccccc2)c2ccccc2)cc1 [Compound 633346] | – | – | 11.64 | 8.05
CCCN(/C=C/C=C/C=[N+](CCC)CCC)CCC.[O-][Cl+3]([O-])([O-])[O-] [Compound 161504] | – | 2.6 | 5.3 | –
C[N+]1=C(/C=C/Nc2cc3c4ccccc4ccc3c3ccccc23)C(C)(C)c2ccccc21.[Cl-] [Compound 313162] | – | – | 4.03 | 1.07
C/C(=N/NC(=S)Nc1cccc(Cl)c1)c1cccc(/C(C)=N\NC(=S)Nc2cccc(Cl)c2)n1 [Compound 668484] | – | – | 3.57 | 1.59
CC1=C(C)CC2C(=O)C(C(O)CC(C)C)=CC(=O)C2C1 (centres unmarked) [Compound 287413] | – | – | 17.06 | 0.68

Compound | Effect on firefly/renilla luciferase ratio | Activity 5 uM | Activity 10 uM | Activity 2.5 uM
COc1ccc(N=Nc2cc(C)c(C)cc2O)cc1 [Compound 209832] | – | 9.509 | 4.7795 | –
CN(C)c1ccc(N=Nc2ccc3ncccc3c2)cc1 [Compound 87323] | – | 5.277 | 6.0905 | –
O=C1C(Cl)=C(c2ccc([N+](=O)[O-])cc2)C(=O)c2c(O)cccc21 [Compound 656076] | – | – | 17.27 | 4.6
CCCCCC(CN(C)C)C(=O)CC(SCC)c1ccc(Cl)c(Cl)c1 (centres unmarked) [Compound 326123] | – | – | 12.9 | 0.47
BrC(Br)=C1C(=C(Br)Br)C(Br)C1Br (centres unmarked) [Compound 624851] | – | – | – | 12.65
O=[N+]([O-])C1=Cc2cc(Cl)ccc2OC1c1cccc2ccccc12 (centres unmarked) [Compound 667472] | – | – | 9.48 | 0.35
N#Cc1nc2c(nc1C#N)-c1ccccc1/C2=C1/C(=O)Cc2ccccc21 [Compound 193713] | – | – | 24.26 | 0.55
O=C(C[Si](CC(=O)c1cccc(C(F)(F)F)c1)CC(=O)c1cccc(C(F)(F)F)c1)c1cccc(C(F)(F)F)c1 [Compound 55879] | – | 1.7 | 3.8 | –
C[C@]12CC[C@@H]3c4ccc(Oc5nc(N6CC6)nc(N6CC6)n5)cc4CC[C@H]3[C@@H]1CCC2=O [Compound 106909] | – | 1.2 | 3.4 | –
O=C1c2ccccc2C(=O)c2c1ccc1c2CCCC1 [Compound 230359] | – | 4.465 | 8.3955 | –
Cc1cc(Cl)c(Cl)cc1NC(=O)c1ccc(Cl)cc1Cl [Compound 204246] | – | – | 3.49 | 1.92
O=C1c2ccccc2C(=O)c2c1oc1c2ccc2ccccc21 [Compound 281986] | – | – | 3.37 | 3.11
CN(C)C1=NC2=S(SC(Nc3ccccc3)=N2)S1 (centres unmarked) [Compound 622683] | – | – | 3.82 | 2.84
O=C(NC(=O)c1c(F)cccc1F)Nc1nc2ccccc2s1 [Compound 298153] | – | – | 3.43 | 3.67
CCCCCCOC(=O)Nc1cccc(O)c1 [Compound 222612] | – | 4.521 | 2.88 | –
CCCCSC1=CC(=O)c2ccccc2C1=O [Compound 149109] | – | – | – | 18.18
F[C-](C(F)(F)F)C(F)(F)F.[CH]1[CH][CH][CH][CH]1.[Co+][I].c1ccc(P(CCP(c2ccccc2)c2ccccc2)c2ccccc2)cc1 [Compound 633997] | – | – | 12.56 | 17.11
CCCN(CCC)c1c([N+](=O)[O-])cc(S(N)(=O)=O)cc1[N+](=O)[O-] [Compound 648479] | – | – | 3.37 | 2.55
COc1cccc(N=C(C)C2C(=O)c3ccccc3C2=O)c1 [Compound 343387] | – | – | 3.33 | 2.32
C1=C(c2ccccc2)OC(c2ccccc2)=C(c2ccccc2)[P+]1(c1ccccc1)c1ccccc1.[Br-] [Compound 339567] | – | – | 11.94 | 1.94
Nc1ccc(N=Nc2ccccc2Cl)c(N)n1 [Compound 106208] | – | 1.8 | 4.3 | –
CN(C)c1ccc(N=C2C=CC(=O)C=C2)cc1 [Compound 400538] | – | – | 6.8 | 0.57
Br[CH](Br)[Hg][c]1ccccc1 [Compound 286678] | – | – | – | 1.72
COc1cc2c(cc1O)C(=O)c1[nH]c3ccccc3c1CC2 [Compound 271272] | – | – | 4.93 | 2.76
CCN(C)c1cc(=O)c2c(ccc3ccccc32)o1 [Compound 292796] | – | 4.759 | 5.6 | –
